Data published in PMC5218480 (PLoS ONE, 2017).

System: MV-4-11 cells
Experiment: Gene expression microarray analysis (Affymetrix PrimeView) and GSEA
Type: cell-based, human
Design: RFU PODN (11730768_x_at) / Fold change /veh PODN (11730768_x_at) / RFU LINC00158 (11744669_a_at) / Fold change /veh LINC00158 (11744669_a_at) / RFU DUSP10 (11751237_a_at) / Fold change /veh DUSP10 (11751237_a_at) / RFU ID3 (11757404_x_at) / Fold change /veh ID3 (11757404_x_at) / RFU PLEKHG5 (11737974_s_at) / Fold change /veh PLEKHG5 (11737974_s_at) / RFU LRRC4B (11730491_at) / Fold change /veh LRRC4B (11730491_at) / RFU GIMAP4 (11747438_a_at) / Fold change /veh GIMAP4 (11747438_a_at) / RFU KRT8 (11758183_x_at) / Fold change /veh KRT8 (11758183_x_at) / RFU CNN1 (11734310_a_at) / Fold change /veh CNN1 (11734310_a_at) / RFU VPS37D (11726825_at) / Fold change /veh VPS37D (11726825_at) / RFU C10orf10 (11716522_x_at) / Fold change /veh C10orf10 (11716522_x_at) / RFU KIR2DL2 /// KIR2DL4 /// KIR2DL5A /// KIR2DL5B /// KIR2DS1 /// KIR2DS2 /// KIR2DS3 /// KIR2DS4 /// KIR3DL3 /// KIR3DL3 /// KIR3DS1 (11738374_at) / Fold change /veh KIR2DL2 /// KIR2DL4 /// KIR2DL5A /// KIR2DL5B /// KIR2DS1 /// KIR2DS2 /// KIR2DS3 /// KIR2DS4 /// KIR3DL3 /// KIR3DL3 /// KIR3DS1 (11738374_at) / RFU C1QL1 (11718748_at) / Fold change /veh C1QL1 (11718748_at) / RFU TMPRSS4 (11747572_a_at) / Fold change /veh TMPRSS4 (11747572_a_at) / RFU HAMP (11756126_x_at) / Fold change /veh HAMP (11756126_x_at) / RFU RNFT2 (11725882_a_at) / Fold change /veh RNFT2 (11725882_a_at) / RFU NR4A2 (11747474_a_at) / Fold change /veh NR4A2 (11747474_a_at) / RFU ABCC12 (11746883_a_at) / Fold change /veh ABCC12 (11746883_a_at) / RFU TMEM136 (11760407_x_at) / Fold change /veh TMEM136 (11760407_x_at) / RFU CLDN22 /// WWC2 (11732394_at) / Fold change /veh CLDN22 /// WWC2 (11732394_at) / RFU HLA-DPB1 (11760878_x_at) / Fold change /veh HLA-DPB1 (11760878_x_at) / RFU SPINT1 (11716480_a_at) / Fold change /veh SPINT1 (11716480_a_at) / RFU GAP43 (11754022_s_at) / Fold change /veh GAP43 (11754022_s_at) / RFU A4GNT (11735810_at) / Fold change /veh A4GNT (11735810_at) / RFU PRB3 (11715151_x_at) / Fold change /veh PRB3 (11715151_x_at) / RFU TUBB4B (11761932_at) / Fold change /veh TUBB4B (11761932_at) / RFU CAPN14 (11732068_a_at) / Fold change /veh CAPN14 (11732068_a_at) / RFU TMCC2 (11721928_a_at) / Fold change /veh TMCC2 (11721928_a_at) / RFU IRGQ (11745062_a_at) / Fold change /veh IRGQ (11745062_a_at) / RFU FAM174B (11720279_a_at) / Fold change /veh FAM174B (11720279_a_at) / RFU TMPRSS4 (11748680_a_at) / Fold change /veh TMPRSS4 (11748680_a_at) / RFU FAM212B (11763350_a_at) / Fold change /veh FAM212B (11763350_a_at) / RFU PLEKHG5 (11743358_a_at) / Fold change /veh PLEKHG5 (11743358_a_at) / RFU ZSCAN30 (11745921_a_at) / Fold change /veh ZSCAN30 (11745921_a_at) / RFU CMKLR1 (11741424_a_at) / Fold change /veh CMKLR1 (11741424_a_at) / RFU LOC101060620 /// MAPK8IP1 (11723275_at) / Fold change /veh LOC101060620 /// MAPK8IP1 (11723275_at) / RFU SPTSSB (11747773_x_at) / Fold change /veh SPTSSB (11747773_x_at) / RFU PRSS12 (11739890_at) / Fold change /veh PRSS12 (11739890_at) / RFU BIN1 (11741810_x_at) / Fold change /veh BIN1 (11741810_x_at) / RFU WNT11 (11732464_a_at) / Fold change /veh WNT11 (11732464_a_at) / RFU C10orf10 (11716521_a_at) / Fold change /veh C10orf10 (11716521_a_at) / RFU C5orf56 (11738089_at) / Fold change /veh C5orf56 (11738089_at) / RFU CYB561 (11721691_x_at) / Fold change /veh CYB561 (11721691_x_at) / RFU ANKRD19P (11752326_a_at) / Fold change /veh ANKRD19P (11752326_a_at) / RFU OR2T12 /// OR2T33 /// OR2T8 (11738714_s_at) / Fold change /veh OR2T12 /// OR2T33 /// OR2T8 (11738714_s_at) / RFU VCAN (11748164_a_at) / Fold change /veh VCAN (11748164_a_at) / RFU JSRP1 (11732532_at) / Fold change /veh JSRP1 (11732532_at) / RFU KRTAP10-11 (11738290_x_at) / Fold change /veh KRTAP10-11 (11738290_x_at) / RFU MYO3A (11730013_a_at) / Fold change /veh MYO3A (11730013_a_at) / RFU EBF3 (11725865_a_at) / Fold change /veh EBF3 (11725865_a_at) / RFU CAMK2N1 (11719241_x_at) / Fold change /veh CAMK2N1 (11719241_x_at) / RFU C5orf56 (11738088_a_at) / Fold change /veh C5orf56 (11738088_a_at) / RFU OLFML3 (11715873_a_at) / Fold change /veh OLFML3 (11715873_a_at) / RFU LOC100653217 /// NTM (11731650_a_at) / Fold change /veh LOC100653217 /// NTM (11731650_a_at) / RFU MAPK11 (11762145_a_at) / Fold change /veh MAPK11 (11762145_a_at) / RFU FIZ1 (11724087_x_at) / Fold change /veh FIZ1 (11724087_x_at) / RFU OASL (11726364_x_at) / Fold change /veh OASL (11726364_x_at) / RFU SOX15 (11748057_x_at) / Fold change /veh SOX15 (11748057_x_at) / RFU CD79A (11719716_a_at) / Fold change /veh CD79A (11719716_a_at) / RFU HIST1H1D (11736915_at) / Fold change /veh HIST1H1D (11736915_at) / RFU CASKIN2 (11723855_a_at) / Fold change /veh CASKIN2 (11723855_a_at) / RFU LOC730098 (11760151_x_at) / Fold change /veh LOC730098 (11760151_x_at) / RFU OR4N2 (11742367_at) / Fold change /veh OR4N2 (11742367_at) / RFU PRRT2 (11749266_a_at) / Fold change /veh PRRT2 (11749266_a_at) / RFU SNX32 (11753110_a_at) / Fold change /veh SNX32 (11753110_a_at) / RFU CDHR5 (11726645_a_at) / Fold change /veh CDHR5 (11726645_a_at) / RFU RCAN1 (11760418_a_at) / Fold change /veh RCAN1 (11760418_a_at) / RFU FAM167A (11723789_a_at) / Fold change /veh FAM167A (11723789_a_at) / RFU FAM26E (11764081_at) / Fold change /veh FAM26E (11764081_at) / RFU ISYNA1 (11749810_s_at) / Fold change /veh ISYNA1 (11749810_s_at) / RFU ACY1 (11761880_at) / Fold change /veh ACY1 (11761880_at) / RFU 11764098_at / Fold change /veh 11764098_at / RFU SAMD14 (11745864_x_at) / Fold change /veh SAMD14 (11745864_x_at) / RFU NPB (11741838_a_at) / Fold change /veh NPB (11741838_a_at) / RFU TMPRSS6 (11731388_a_at) / Fold change /veh TMPRSS6 (11731388_a_at) / RFU KRTAP10-2 (11738614_at) / Fold change /veh KRTAP10-2 (11738614_at) / RFU ARHGAP8 /// PRR5-ARHGAP8 (11727945_x_at) / Fold change /veh ARHGAP8 /// PRR5-ARHGAP8 (11727945_x_at) / RFU KRTAP5-7 /// NADSYN1 (11734609_at) / Fold change /veh KRTAP5-7 /// NADSYN1 (11734609_at) / RFU RASL12 (11751679_a_at) / Fold change /veh RASL12 (11751679_a_at) / RFU CDKN2B (11736163_a_at) / Fold change /veh CDKN2B (11736163_a_at) / RFU PRF1 (11729649_at) / Fold change /veh PRF1 (11729649_at) / RFU, ZNF638 /// ZNF638-IT1 / Fold change vs veh, ZNF638 /// ZNF638-IT1 / RFU, PANK3 / Fold change vs veh, PANK3 / RFU, SH3YL1 / Fold change vs veh, SH3YL1 / RFU, ZEB2 / Fold change vs veh, ZEB2 / RFU, NRIP1 / Fold change vs veh, NRIP1 / RFU, PTTG1IP / Fold change vs veh, PTTG1IP / RFU, CAPN2 / Fold change vs veh, CAPN2 / RFU, MED14 / Fold change vs veh, MED14 / RFU, SNORA58 / Fold change vs veh, SNORA58 / RFU, C1orf63 / Fold change vs veh, C1orf63 / RFU, LRRFIP1 / Fold change vs veh, LRRFIP1 / RFU, NDUFAF7 / Fold change vs veh, NDUFAF7 / RFU, SLC12A2 / Fold change vs veh, SLC12A2 / RFU, IBTK / Fold change vs veh, IBTK / RFU, ESF1 / Fold change vs veh, ESF1 / Fold change vs veh, TMEM50B / RFU, TAOK1 / Fold change vs veh, TAOK1 / RFU, ACBD3 / Fold change vs veh, ACBD3 / RFU, TMA16 / Fold change vs veh, TMA16 / RFU, RWDD3 / Fold change vs veh, RWDD3 / RFU, BCAT1 / Fold change vs veh, BCAT1 / RFU, EDEM3 / Fold change vs veh, EDEM3 / RFU, TMEM33 / Fold change vs veh, TMEM33 / RFU, WDR75 / Fold change vs veh, WDR75 / RFU, AHCTF1 / Fold change vs veh, AHCTF1 / RFU, TFRC / Fold change vs veh, TFRC / RFU, ZDHHC17 / Fold change vs veh, ZDHHC17 / RFU, NOM1 / Fold change vs veh, NOM1 / RFU, ARL8B / Fold change vs veh, ARL8B / RFU, ZBTB11 / Fold change vs veh, ZBTB11 / RFU, TAMM41 / Fold change vs veh, TAMM41 / RFU, KIAA1704 /// LOC100996395 / Fold change vs veh, KIAA1704 /// LOC100996395 / RFU, ING1 / Fold change vs veh, ING1 / RFU, TRMT61B / Fold change vs veh, TRMT61B / RFU, FUBP3 / Fold change vs veh, FUBP3 / RFU, TP53 / Fold change vs veh, TP53 / RFU, TNKS2 / Fold change vs veh, TNKS2 / RFU, ZFP14 / Fold change vs veh, ZFP14 / RFU, ACTR2 / Fold change vs veh, ACTR2 / RFU, PPP3R1 / Fold change vs veh, PPP3R1 / RFU, PIK3R1 / Fold change vs veh, PIK3R1 / RFU, HNRNPA1 / Fold change vs veh, HNRNPA1 / RFU, RNF170 / Fold change vs veh, RNF170 / RFU, ZNF28 / Fold change vs veh, ZNF28 / RFU, RNGTT / Fold change vs veh, RNGTT / RFU, OGT / Fold change vs veh, OGT / RFU, BRD1 / Fold change vs veh, BRD1 / RFU, MARS / Fold change vs veh, MARS / RFU, ZNF655 / Fold change vs veh, ZNF655 / RFU, FAHD1 / Fold change vs veh, FAHD1 / RFU, BDP1 / Fold change vs veh, BDP1 / RFU, LRRCC1 / Fold change vs veh, LRRCC1 / RFU, ARID1A / Fold change vs veh, ARID1A / RFU, ZNF146 / Fold change vs veh, ZNF146 / RFU, ZNF330 / Fold change vs veh, ZNF330 / RFU, GPN3 / Fold change vs veh, GPN3 / RFU, C9orf123 / Fold change vs veh, C9orf123 / RFU, N4BP2L2 / Fold change vs veh, N4BP2L2 / RFU, ARFIP1 / Fold change vs veh, ARFIP1 / RFU, FAM179B / Fold change vs veh, FAM179B / RFU, BCL10 / Fold change vs veh, BCL10 / RFU, UHRF1BP1L / Fold change vs veh, UHRF1BP1L / RFU, BET1 / Fold change vs veh, BET1 / RFU, CNOT2 / Fold change vs veh, CNOT2 / RFU, ZNF268 / Fold change vs veh, ZNF268 / Fold change vs veh, ZNF507 / RFU, DGCR2 / Fold change vs veh, DGCR2 / RFU, WDSUB1 / Fold change vs veh, WDSUB1 / Fold change vs veh, HSP90B1 /// MIR3652 / RFU, ADSS / Fold change vs veh, ADSS / RFU, GK / Fold change vs veh, GK / RFU, ZNF148 / Fold change vs veh, ZNF148 / RFU, TAF9 / Fold change vs veh, TAF9 / RFU, SLC1A5 / Fold change vs veh, SLC1A5 / RFU, SLMO2 / Fold change vs veh, SLMO2 / RFU, ABCC4 / Fold change vs veh, ABCC4 / RFU, LOC101060439 /// RAP1B / Fold change vs veh, LOC101060439 /// RAP1B / RFU, RFX7 / Fold change vs veh, RFX7 / RFU, GTPBP10 / Fold change vs veh, GTPBP10 / RFU, CNEP1R1 / Fold change vs veh, CNEP1R1 / RFU, BIVM-ERCC5 /// ERCC5 / Fold change vs veh, BIVM-ERCC5 /// ERCC5 / RFU, ILF3 / Fold change vs veh, ILF3 / RFU 11762660_at / Fold change /veh 11762660_at / RFU VCAN (11757783_s_at) / Fold change /veh VCAN (11757783_s_at) / RFU DDX43 (11728927_at) / Fold change /veh DDX43 (11728927_at) / RFU KRT8 (11758188_x_at) / Fold change /veh KRT8 (11758188_x_at) / RFU NKD1 (11759106_at) / Fold change /veh NKD1 (11759106_at) / RFU SRD5A1 (11742802_a_at) / Fold change /veh SRD5A1 (11742802_a_at) / RFU TPSAB1 /// TPSB2 (11721975_s_at) / Fold change /veh TPSAB1 /// TPSB2 (11721975_s_at) / RFU GSTM3 (11746129_a_at) / Fold change /veh GSTM3 (11746129_a_at) / RFU IL23R (11737362_x_at) / Fold change /veh IL23R (11737362_x_at) / RFU TMEM51 (11727254_a_at) / Fold change /veh TMEM51 (11727254_a_at) / RFU PIWIL2 (11732686_x_at) / Fold change /veh PIWIL2 (11732686_x_at) / RFU ORM1 (11744905_x_at) / Fold change /veh ORM1 (11744905_x_at) / RFU CCDC152 (11743942_at) / Fold change /veh CCDC152 (11743942_at) / RFU ECM1 (11717891_a_at) / Fold change /veh ECM1 (11717891_a_at) / RFU IL23R (11748794_a_at) / Fold change /veh IL23R (11748794_a_at) / RFU TNFAIP8L3 (11732012_x_at) / Fold change /veh TNFAIP8L3 (11732012_x_at) / RFU MBOAT4 (11741988_at) / Fold change /veh MBOAT4 (11741988_at) / RFU 11764193_at / Fold change /veh 11764193_at / RFU TMEM53 (11763286_at) / Fold change /veh TMEM53 (11763286_at) / RFU MAGEB2 (11727129_at) / Fold change /veh MAGEB2 (11727129_at) / RFU TMEM200A (11744735_a_at) / Fold change /veh TMEM200A (11744735_a_at) / RFU CCDC152 (11751479_a_at) / Fold change /veh CCDC152 (11751479_a_at) / RFU FAM211A (11726209_a_at) / Fold change /veh FAM211A (11726209_a_at) / RFU RGS16 (11746705_a_at) / Fold change /veh RGS16 (11746705_a_at) / RFU VCAN (11755009_s_at) / Fold change /veh VCAN (11755009_s_at) / RFU RHOB (11743442_s_at) / Fold change /veh RHOB (11743442_s_at) / RFU RGS16 (11720943_a_at) / Fold change /veh RGS16 (11720943_a_at) / RFU RGS16 (11720944_at) / Fold change /veh RGS16 (11720944_at) / RFU, VPS4B / Fold change vs veh, VPS4B / RFU, CREB1 / Fold change vs veh, CREB1 / RFU, DNAJC13 / Fold change vs veh, DNAJC13 / RFU, GNAQ / Fold change vs veh, GNAQ / RFU, CDK5R1 / Fold change vs veh, CDK5R1 / RFU, ZRANB3 / Fold change vs veh, ZRANB3 / RFU, CUL4A / Fold change vs veh, CUL4A / RFU, CCNY / Fold change vs veh, CCNY / RFU, UFL1 / Fold change vs veh, UFL1 / RFU, COG3 / Fold change vs veh, COG3 / RFU, DIAPH2 / Fold change vs veh, DIAPH2 / RFU, SKA2 / Fold change vs veh, SKA2 / RFU, AFF3 / Fold change vs veh, AFF3 / RFU, LMF1 / Fold change vs veh, LMF1 / RFU, IPO11 / Fold change vs veh, IPO11 / RFU, DFFB / Fold change vs veh, DFFB / RFU, FOXP1 / Fold change vs veh, FOXP1 / RFU, CARD8 / Fold change vs veh, CARD8 / RFU, STRN3 / Fold change vs veh, STRN3 / RFU, ADK / Fold change vs veh, ADK / RFU, RASSF2 / Fold change vs veh, RASSF2 / RFU, WIPF1 / Fold change vs veh, WIPF1 / RFU, LARP1B / Fold change vs veh, LARP1B / RFU, RASA1 / Fold change vs veh, RASA1 / RFU, RB1 / Fold change vs veh, RB1 / RFU, PPFIA1 / Fold change vs veh, PPFIA1 / RFU, MAT2A / Fold change vs veh, MAT2A / RFU, CCT5 / Fold change vs veh, CCT5 / RFU, WDR92 / Fold change vs veh, WDR92 / RFU, CUX1 / Fold change vs veh, CUX1 / RFU, TTC7A / Fold change vs veh, TTC7A / RFU, TMEM135 / Fold change vs veh, TMEM135 / RFU, DEPTOR / Fold change vs veh, DEPTOR / RFU, CPM / Fold change vs veh, CPM / RFU, DNAJB6 / Fold change vs veh, DNAJB6 / RFU, CACNA2D3 / Fold change vs veh, CACNA2D3 / RFU, DTX4 / Fold change vs veh, DTX4 / RFU, TFCP2 / Fold change vs veh, TFCP2 / RFU, GMCL1 /// GMCL1P1 / Fold change vs veh, GMCL1 /// GMCL1P1 / RFU, AEBP2 / Fold change vs veh, AEBP2 / RFU, SNHG1 /// SNORD22 /// SNORD25 /// SNORD26 /// SNORD27 /// SNORD28 /// SNORD29 /// SNORD31 / Fold change vs veh, SNHG1 /// SNORD22 /// SNORD25 /// SNORD26 /// SNORD27 /// SNORD28 /// SNORD29 /// SNORD31 / Fold change (Aza/veh), C12orf56 (ProbeSet 11735607_a_at) / Fold change (ACY-1035/veh), C12orf56 (ProbeSet 11735607_a_at) / Fold change (Aza/veh), FGFR1OP (ProbeSet 11751329_s_at) / Fold change (ACY-1035/veh), FGFR1OP (ProbeSet 11751329_s_at) / Fold change (Aza/veh), VPS36 (ProbeSet 11739960_a_at) / Fold change (ACY-1035/veh), VPS36 (ProbeSet 11739960_a_at) / RFU SYPL1 (11715823_x_at) / Fold change /veh SYPL1 (11715823_x_at) / RFU IGFBP7 (11715501_s_at) / Fold change /veh IGFBP7 (11715501_s_at) / RFU REEP3 (11722064_at) / Fold change /veh REEP3 (11722064_at) / RFU IGLL1 (11728026_x_at) / Fold change /veh IGLL1 (11728026_x_at): dose or concentration left out as unconfirmed
Conditions: ProbeSet 11749781_s_at; LIST B

Structure (SMILES): Nc1ccc(-c2cccs2)cc1NC(=O)c1ccc2c(c1)cc(C1CC1)n2CCN1CCOCC1 [ACY-1035]
- RFU, BCAT1: 11.38 RFU
